target: Genome polyprotein (Dengue virus type 2 (strain Thailand/NGS-C/1944), UniProt P14340); assay: DENV2 Protease Assay; conditions: pH 8.5
Procedure: To measure the inhibitory activities of the compounds, the DENV2 NS2B-NS3 protease activities were measured in the presence of the compounds using Bz-Nle-Lys-Arg-Arg-AMC as a substrate. The enzyme concentration in the assay was 125 nM, and the substrate concentration was 20 µM in 10 mM Tris-HCl pH 8.5, 20% glycerol, and 1 mM CHAPS. The inhibitor concentrations were 100 µM for the first round and between 3.125 and 400 µM for the compounds 16 and 19 in the second round. Before adding the substrate, the enzyme and the inhibitors were incubated at 37 °C for 15 min. All reactions were performed in 96-well plates with a final volume of 50 µL per each wells using the FLx800 fluorescence microplate reader (excitation = 380 nm; emission = 460 nm).

Genome polyprotein, sequence (P14340 1346-1475 limits assumed): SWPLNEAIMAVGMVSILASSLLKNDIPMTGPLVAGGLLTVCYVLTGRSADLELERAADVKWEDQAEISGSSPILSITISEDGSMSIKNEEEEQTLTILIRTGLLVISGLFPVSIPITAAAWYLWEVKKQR
Genome polyprotein, sequence (P14340 1476-2093 limits assumed): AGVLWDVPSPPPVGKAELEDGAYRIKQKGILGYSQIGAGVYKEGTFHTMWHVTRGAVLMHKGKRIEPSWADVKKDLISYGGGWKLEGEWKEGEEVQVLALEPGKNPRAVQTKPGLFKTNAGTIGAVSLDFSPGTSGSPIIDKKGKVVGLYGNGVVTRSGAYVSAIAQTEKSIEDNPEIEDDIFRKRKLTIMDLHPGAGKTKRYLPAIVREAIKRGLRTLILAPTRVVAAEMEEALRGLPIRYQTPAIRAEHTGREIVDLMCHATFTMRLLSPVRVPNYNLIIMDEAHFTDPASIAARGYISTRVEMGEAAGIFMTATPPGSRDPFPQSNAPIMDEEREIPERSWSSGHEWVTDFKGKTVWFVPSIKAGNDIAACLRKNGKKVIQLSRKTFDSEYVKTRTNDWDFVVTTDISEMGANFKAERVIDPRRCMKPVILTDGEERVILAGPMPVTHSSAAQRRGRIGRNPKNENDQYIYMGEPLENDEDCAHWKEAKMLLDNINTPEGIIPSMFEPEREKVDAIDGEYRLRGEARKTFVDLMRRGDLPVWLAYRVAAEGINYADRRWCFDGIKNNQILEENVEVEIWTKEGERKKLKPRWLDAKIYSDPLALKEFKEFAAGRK

| IC50 [µM] | SMILES |
| --- | --- |
| > 100 | S=C(Nc1ccc(C(c2c[nH]c3ccccc23)c2c[nH]c3ccccc23)cc1)Nc1cccc(Br)c1 |
| > 100 | CN1CCN(S(=O)(=O)c2ccc(N3C(=O)c4ccccc4C3=O)cc2)CC1 [2-(4-(4-Methylpiperazin-1-ylsulphonyl)phenyl)isoindoline-1,3-dione (6)] |
| > 100 | O=C1c2ccccc2C(=O)N1c1ccc(S(=O)(=O)N2CCCCC2)cc1 [2-(4-(Piperidin-1-ylsulphonyl)phenyl)isoindoline-1,3-dione (5)] |
| > 100 | CN(C)S(=O)(=O)c1ccc(N2C(=O)c3ccccc3C2=O)cc1 [4-(1,3-Dioxoisoindolin-2-yl)-N,N-dimethyl benzenesulphonamide (2)] |
| > 100 | O=C1c2ccccc2C(=O)N1c1ccc(S(=O)(=O)Nc2ccccc2O)cc1 [4-(1,3-Dioxoisoindolin-2-yl)-N-(2-hydroxyphenyl)benzenesulphonamide (8)] |
| > 100 | COc1cccc(NS(=O)(=O)c2ccc(N3C(=O)c4ccccc4C3=O)cc2)c1 [4-(1,3-Dioxoisoindolin-2-yl)-N-(3-methoxyphenyl)benzenesulphonamide (9)] |
| 48.2 | CCc1ccc(NS(=O)(=O)c2ccc(N3C(=O)c4ccccc4C3=O)cc2)cc1 [4-(1,3-Dioxoisoindolin-2-yl)-N-(4-ethylphenyl)benzenesulphonamide (16)] |
| > 100 | COc1ccc(NS(=O)(=O)c2ccc(N3C(=O)c4ccccc4C3=O)cc2)cc1 [4-(1,3-Dioxoisoindolin-2-yl)-N-(4-methoxyphenyl)benzenesulphonamide (10)] |
| > 100 | O=C1c2ccccc2C(=O)N1c1ccc(S(=O)(=O)Nc2ccc([N+](=O)[O-])cc2)cc1 [4-(1,3-Dioxoisoindolin-2-yl)-N-(4-nitrophenyl)benzenesulphonamide (17)] |
| 122 | O=C1c2ccccc2C(=O)N1c1ccc(S(=O)(=O)Nc2cccc3ccccc23)cc1 [4-(1,3-Dioxoisoindolin-2-yl)-N-(naphthalen-1-yl)benzenesulphonamide (19)] |
| > 100 | Cc1cccc(NS(=O)(=O)c2ccc(N3C(=O)c4ccccc4C3=O)cc2)c1 [4-(1,3-Dioxoisoindolin-2-yl)-N-m-tolylbenzenesulphonamide (14)] |
| > 100 | Cc1ccccc1NS(=O)(=O)c1ccc(N2C(=O)c3ccccc3C2=O)cc1 [4-(1,3-Dioxoisoindolin-2-yl)-N-o-tolylbenzenesulphonamide (13)] |
| > 100 | Cc1ccc(NS(=O)(=O)c2ccc(N3C(=O)c4ccccc4C3=O)cc2)cc1 [4-(1,3-Dioxoisoindolin-2-yl)-N-p-tolylbenzenesulphonamide (15)] |
| > 100 | O=C1c2ccccc2C(=O)N1c1ccc(S(=O)(=O)NCCc2ccccc2)cc1 [4-(1,3-Dioxoisoindolin-2-yl)-N-phenethylbenzenesulphonamide (20)] |
| > 100 | O=C1c2ccccc2C(=O)N1c1ccc(S(=O)(=O)Nc2ccccc2)cc1 [4-(1,3-Dioxoisoindolin-2-yl)-N-phenylbenzenesulphonamide (7)] |
| > 100 | NS(=O)(=O)c1ccc(N2C(=O)c3ccccc3C2=O)cc1 [4-(1,3-Dioxoisoindolin-2-yl)benzenesulphonamide (1)] |
| > 100 | O=C(O)c1ccc(NS(=O)(=O)c2ccc(N3C(=O)c4ccccc4C3=O)cc2)cc1 [4-(4-(1,3-Dioxoisoindolin-2-yl)phenylsulphonamido)benzoic acid (18)] |
| > 100 | O=C1c2ccccc2C(=O)N1c1ccc(S(=O)(=O)Nc2cccc(Cl)c2)cc1 [N-(3-chlorophenyl)-4-(1,3-dioxoisoindolin-2-yl)benzenesulphonamide (11)] |
| > 100 | O=C1c2ccccc2C(=O)N1c1ccc(S(=O)(=O)Nc2ccc(Cl)cc2)cc1 [N-(4-chlorophenyl)-4-(1,3-dioxoisoindolin-2-yl)benzenesulphonamide (12)] |

— BindingDB's records for doi:10.1016/j.bioorg.2015.07.005 (Birla Institute of Technology, 2015)
